Experimental data published in patent publication US20220395500A1, “SMALL MOLECULE ACTIVATORS OF INTERFERON REGULATORY FACTOR 3 AND METHODS OF USE THEREOF” (Neuralexo, Inc., priority 2020, published 2022).
Read-outs that look alike come from different tables or passages of the source.

How the values were obtained:
[1] = test system: IRF-Lucia luciferase reporter (ISRE) in THP1-Dual cells; assay: THP1-Dual IRF-Lucia luciferase reporter assay (ISRE activation); format: cell-based, human; details: for EC50: Homo sapiens, read-out: THP1 IRF EC50; for Average ISRE/NFκB (Range) / Average ISRE % Activation: human THP1 pilot screen, 10 μM, 3 screens; for Average ISRE % Activation: 24 hours, percent of LPS activation signal +/− SD
Description: THP1 Dual (InvivoGen) cell suspensions were cultured in RPMI 1640 (Hyclone, Logan, Utah) supplemented with 10% fetal bovine serum (Hyclone), 100 U/mL Normocin (Invivogen), and 50 U/mL PenStrep (Gibco, Dublin, Ireland) between a density of 7·10^5-2·10^6 cells/mL. Every other passage, media was supplemented with 5 U/mL Blasticidin and 100 U/mL Zeocin to maintain the expression constructs. White, flat-bottom 384-well plates (Greiner, Kremsmunster, Austria, 781080) were seeded with 2.5·10^4 cells/well in a total of 50 μL media containing 5 ng/mL phorbolmyristic acid (PMA) using a Matrix WellMate (Thermo Scientific) dispenser. After 48 hours of incubation at 37° C., media was removed using a BioTek ELx405 CW plate washer set to aspirate and wash each well three times with 65 μL 1×PBS. Plates were reloaded with 50 μL media without PMA and treatments added. Lipopolysaccharide in dimethylsulfoxide (DMSO) was transferred to control wells using a HP D300 microdispenser to a final concentration of 313 ng/mL. Compounds from chemical library plates were copied using a Sciclone (Caliper LifeSciences) mounted with a 384-pin transfer tool to obtain a final concentration of 10 μM. After incubation with treatments for 24 hours, 10 μL of supernatant media from each well was transferred into a white, flat-bottom 384-well plate for luminescence readout and a black-walled, clear flat-bottom 384-well plate for absorbance readout.
Specifically, to enable screening of novel chemical entities (NCEs) in a larger screening effort, a robust high-throughput cell-based assay system for primary hit identification of ISRE activators based on the above-mentioned target validation was desired. Human ISRE activity was verified using a THP-1 monocyte line containing the NF-κB-SEAP and IRF-Lucia luciferase dual reporter (THP1-Dual; Invivogen) that features two reporter genes, SEAP (secreted embryonic alkaline phosphatase) and Lucia luciferase, thereby enabling the simultaneous study of the NF-κB and IRF signalling pathways. The Lucia luciferase reporter is under the control of an ISG54 (interferon-stimulated gene) minimal promoter in conjunction with five IFN-stimulated response elements. The SEAP gene is driven by an IFN-β minimal promoter fused to five copies of the NF-κB consensus transcriptional response element and three copies of the c-Rel binding site. Both reporter proteins are readily measurable in the cell culture supernatant when using QUANTI-LUC™ and QUANTI-Blue SEAP detection reagents.
The responsiveness of the human THP-1 Dual cell line was evaluated in an array of assay conditions to obtain sensitive and reproducible results for the activation of IRF and NF-κB reporters. […] All transfer steps are fully automated using high throughput robotic equipment. Briefly, cells are seeded in differentiation medium using a Matrix WellMate fitted with the WellMate Stacker (Thermo Scientific) and incubated at 37° C. with 5% CO2 for 48 h. Following differentiation, cells are washed using a BioTek ELx405 Select CW plate washer and growth medium added with the Matrix WellMate. Programmed control treatments are added to wells using a D300 digital dispenser fitted with T8+ dispense heads (Hewlett Packard) designed to dispense nanoliter quantities of material. Compounds from library plates are added using a pin tool fitted to a Sciclone ALH 3000 Workstation (Caliper Life Sciences) programmed with Maestro v4.4. After treatment, plates are returned to incubators for 24 hours. To measure reporter expression, supernatant is collected using the Sciclone and dispensed into 2 plates: 1) a white 384-well assay plate for Lucia luminescence measurements and 2) a clear-bottom black 384-well assay plate for SEAP absorbance measurements.

[2] = THP1-Dual cytotoxicity (Cell Titer Glo, ATP); format: cell-based, human; details: human, THP1-Dual cells, read-out: Thp1 cytotox CC50
Excerpt: FIG. 9C is a CC50 (50% cytotoxic concentration) graph of AV-C dependent IRF activation in THP1-Dual cells, determined with an 8-point dose response experiment. Cell viability was monitored based on quantitation of ATP present, as an indicator of metabolically active cells, where luminescence is proportional to the amount of ATP present, using Cell-Titer Glo (Promega).
The OTRADI Small Molecule Library of approximately 246,000 diverse compounds (see below for description) was screened using the THP1-Dual based HTS platform described above. All transfer steps in the screen are fully automated, thus reducing variability. Primary screening included a single data point or dose for each molecule. After data normalization was applied for each assay run, “hit” selection was performed on the plates that pass the quality control (QC) criterion. Hits were defined as samples having values above the activity cutoff determined based on noise level of the assay to reduce false positive rates. In the pilot study discussed above this activity value was >3σ above the ISRE mean with the added criteria of NFκB activation being lower than […] from the mean to identify IRF selective compounds. The ratio of ISRE:NFκB activity was also calculated as a selectivity index for prioritizing hit selection. Primary hits underwent secondary screening to determine the 50% effective concentration (EC50) and 50% cytotoxic concentration (CC50) of these agents using an 8-point dose-response curve in the human THP1-Dual cells. Cytotoxicity was measured in the plate using Cell Titer Glo (Promega). Identified candidate compounds were further screened (orthogonal screen) for cross species activity in the validated mouse J774-Dual assay using an 8-point dose-response format to determine EC50 and CC50 values as well as ISRE:NFκB ratios. A general process flow for the experimental design laid out above is depicted at FIG. 12.

J774-Dual cytotoxicity = format: cell-based, mouse; details: mouse, J774-Dual cells, read-out: J774 cytotox CC50
Description: The OTRADI Small Molecule Library of approximately 246,000 diverse compounds (see below for description) was screened using the THP1-Dual based HTS platform described above. All transfer steps in the screen are fully automated, thus reducing variability. Primary screening included a single data point or dose for each molecule. After data normalization was applied for each assay run, “hit” selection was performed on the plates that pass the quality control (QC) criterion. Hits were defined as samples having values above the activity cutoff determined based on noise level of the assay to reduce false positive rates. […] The ratio of ISRE:NFκB activity was also calculated as a selectivity index for prioritizing hit selection. Primary hits underwent secondary screening to determine the 50% effective concentration (EC50) and 50% cytotoxic concentration (CC50) of these agents using an 8-point dose-response curve in the human THP1-Dual cells. Cytotoxicity was measured in the plate using Cell Titer Glo (Promega). Identified candidate compounds were further screened (orthogonal screen) for cross species activity in the validated mouse J774-Dual assay using an 8-point dose-response format to determine EC50 and CC50 values as well as ISRE:NFκB ratios. A general process flow for the experimental design laid out above is depicted at FIG. 12.

[3] = THP1-Dual, Human Reporter Cell Line, 8-point dose response
[4] = THP1-Dual, Human Reporter Cell Line THP1

Molecule	EC50 [1, 3]	EC50 [1, 4]	CC50 ([2]; Human Reporter Cell Line)	CC50 (J774-Dual cytotoxicity; Mouse Reporter Cell Line)	CC50 ([2]; Human Reporter Cell Line THP1)	CC50 (J774-Dual cytotoxicity; Mouse Reporter Cell Line J774)	also measured
CC(C)c1ccc(C(=O)Nc2ccc(N3CCN(C(=O)c4ccco4)CC3)cc2)cc1 [NA-4]	~13.2 µM		37.8 µM	> 25 µM			
O=C(Nc1ccc(N2CCN(C(=O)c3cccs3)CC2)cc1)c1ccc2cc(Br)ccc2c1 [NA-17]	2.4 µM		14.6 µM	> 25 µM			
O=C(Nc1ccc(N2CCN(C(=O)c3cccs3)CC2)cc1)c1ccc(Br)c2ncccc12 [NA-18]	3.08 µM		> 25 µM	> 25 µM			
O=C(Nc1ccc(N2CCN(C(=O)c3cccs3)CC2)cc1)c1cc(Cl)ccc1Cl [NA-43]	~10.8 µM		> 25 µM	> 25 µM			
COc1ccc(C(=O)Nc2ccc(N3CCN(C(=O)c4cccs4)CC3)cc2)cc1[N+](=O)[O-] [NA-46]	0.109 µM		> 25 µM	> 25 µM			
COC(=O)c1ccc(N2CCN(C(=O)c3cccs3)CC2)cc1 [NA-47]	0.358 µM		> 25 µM	> 25 µM			
O=C(Nc1ccc(N2CCN(C(=O)c3ccccc3)CC2)cc1)c1ccc(OCc2ccccc2)cc1 [NA-51]	~2.63 µM		11.3 µM	> 25 µM			
Cc1ccccc1C(=O)N1CCN(c2ccc(NC(=O)c3ccc(OCc4ccccc4)cc3)cc2)CC1 [NA-52]	1.42 µM		> 25 µM	> 25 µM			
O=C(Nc1ccc(N2CCN(C(=O)c3ccccc3)CC2)cc1)c1ccc(-c2cccnc2)cc1 [NA-53]	~1.48 µM		12.3 µM	29.2 µM			
O=C(Nc1ccc(N2CCN(C(=O)c3cccs3)CC2)cc1)c1ccc(OCc2cccnc2)cc1 [NA-61]	2.27 µM						
NC(=O)c1cc(NC(=O)c2ccccc2)ccc1N1CCOCC1 [NB-4]		~72.1 µM			> 25 µM	> 25 µM	activation at 25 µM ([1]; THP1-Dual, 24 h, Human Reporter Cell Line THP1, @25 uM, read-out: THP1 IRF % activation at peak): 5.61%
COc1ccc(C(=O)Nc2cccc(-c3nc4ccccc4s3)c2C)cc1[N+](=O)[O-] [ND-90]					> 25 µM	> 25 µM	
CN(C)CCCOc1ccc(-c2nc3cc(OCCCN4CCCC4)ccc3o2)cc1 [ND-93]					> 25 µM	> 25 µM	
CC(C)CC(=O)c1c(C(C)C)nn2ccccc12 [ND-97]					> 25 µM	> 25 µM	
Cc1ccc(-c2nc3cc(Cl)ccc3o2)cc1NC(=O)/C=C/c1cccc([N+](=O)[O-])c1 [ND-99]					> 25 µM	> 25 µM	
O=c1cc(NC[C@H](O)[C@H](O)[C@H](O)CO)[nH]c(=O)[nH]1 [ND-100]					> 25 µM	> 25 µM	
COc1ccc(S(=O)(=O)Nc2cc(-c3nc4cc(C)c(C)cc4o3)ccc2C)cc1[N+](=O)[O-] [ND-107]					> 10 µM	> 10 µM	
Cc1cc2nc(-c3c[nH]c4ccccc34)oc2cc1C [ND-108]					> 10 µM	> 10 µM	
COC1=CC(=O)C(O)=C/C1=C\C=C\c1ccccc1 [OTR-0001624-001 (Obtusaquinone), Obtusaquinone, reference compound]							Average ISRE/NFκB (Range) [1]: 0.2 (0.2-0.3); Average ISRE % Activation [1]: 1.7 +/− 0.6%
CCN(CC)CCCC(C)Nc1c2ccc(Cl)cc2nc2ccc(OC)cc12.Cl.Cl (stereo not drawn) [Quinacrine Hydrochloride, reference compound]							Average ISRE/NFκB (Range) [1]: 1.4 (1.0-2.0); Average ISRE % Activation [1]: 5.7 +/− 2.9%
Methapyrilene Hydrochloride [reference compound]							Average ISRE/NFκB (Range) [1]: 1.4 (0.4-2.3)

More lines, main results first:

EC50 [1, 3]	EC50 [1, 4]	Molecule	CC50 ([2]; Human Reporter Cell Line)	CC50 (J774-Dual cytotoxicity; Mouse Reporter Cell Line)	CC50 ([2]; Human Reporter Cell Line THP1)	CC50 (J774-Dual cytotoxicity; Mouse Reporter Cell Line J774)	also measured
2.55 µM		COC(=O)COc1cccc(NC(=O)c2ccc(NC(=O)c3ccco3)cc2)c1 [NC-1]	27.4 µM	> 25 µM			
	3.14 µM	Cc1ccc(-c2nc3ncccc3o2)cc1NC(=O)c1cc(Br)ccc1Cl [ND-3]			30.7 µM	> 25 µM	
	3.13 µM	Cc1ccc(C(=O)Nc2ccc3oc(-c4cccnc4)nc3c2)c(Cl)c1 [ND-4]			49.3 µM	> 25 µM	
	2.95 µM	COc1ccc(C(=O)Nc2cc(-c3nc4cc(C)cc(C)c4o3)ccc2C)cc1[N+](=O)[O-] [ND-8]			> 25 µM	> 25 µM	
	13.5 µM	COc1ccc(C(=O)Nc2nc(-c3cc4ccccc4oc3=O)co2)c2ccccc12 [ND-18]					
	3.83 µM	O=C(Nc1nc(-c2cc3ccccc3oc2=O)cs1)c1ccc(OCc2ccccc2)cc1 [ND-22]			9.79 µM		
	4.68 µM	COc1ccc(C(=O)Nc2nc(-c3cc4ccccc4oc3=O)cs2)nc1 [ND-27]			> 25 µM	> 25 µM	
	~3.3 µM	COc1ccc(C(=O)Nc2nc(-c3cc4ccccc4oc3=O)cs2)cn1 [ND-28]			> 25 µM	> 25 µM	
	15.2 µM	Cc1ccc(-c2nc3ccccc3o2)cc1NC(=O)c1ccc(C)c([N+](=O)[O-])c1 [ND-30]			> 25 µM	> 25 µM	
	~3.14 µM	Cc1ccc2nc(-c3ccc(C)c(NC(=O)c4ccc(C)c([N+](=O)[O-])c4)c3)oc2c1 [ND-31]			22.3 µM	> 25 µM	
	~11.4 µM	Cc1cc2nc(-c3ccc(C)c(NC(=O)c4ccc(N5CCCC5)c([N+](=O)[O-])c4)c3)oc2cc1C [ND-34]			> 25 µM	> 25 µM	
	2.13 µM	COc1ccc2oc(-c3ccc(C)c(NC(=O)c4ccc(N5CCOCC5)c([N+](=O)[O-])c4)c3)nc2c1 [ND-35]			35.7 µM	> 25 µM	
